Data from ChEMBL document CHEMBL5725873, “Heteroaryl compounds and their use as therapeutic drugs” (2018).

Biological target: T1, Tyrosine-protein kinase Mer (Homo sapiens, UniProt Q12866)
T1 sequence (Q12866 whole entry): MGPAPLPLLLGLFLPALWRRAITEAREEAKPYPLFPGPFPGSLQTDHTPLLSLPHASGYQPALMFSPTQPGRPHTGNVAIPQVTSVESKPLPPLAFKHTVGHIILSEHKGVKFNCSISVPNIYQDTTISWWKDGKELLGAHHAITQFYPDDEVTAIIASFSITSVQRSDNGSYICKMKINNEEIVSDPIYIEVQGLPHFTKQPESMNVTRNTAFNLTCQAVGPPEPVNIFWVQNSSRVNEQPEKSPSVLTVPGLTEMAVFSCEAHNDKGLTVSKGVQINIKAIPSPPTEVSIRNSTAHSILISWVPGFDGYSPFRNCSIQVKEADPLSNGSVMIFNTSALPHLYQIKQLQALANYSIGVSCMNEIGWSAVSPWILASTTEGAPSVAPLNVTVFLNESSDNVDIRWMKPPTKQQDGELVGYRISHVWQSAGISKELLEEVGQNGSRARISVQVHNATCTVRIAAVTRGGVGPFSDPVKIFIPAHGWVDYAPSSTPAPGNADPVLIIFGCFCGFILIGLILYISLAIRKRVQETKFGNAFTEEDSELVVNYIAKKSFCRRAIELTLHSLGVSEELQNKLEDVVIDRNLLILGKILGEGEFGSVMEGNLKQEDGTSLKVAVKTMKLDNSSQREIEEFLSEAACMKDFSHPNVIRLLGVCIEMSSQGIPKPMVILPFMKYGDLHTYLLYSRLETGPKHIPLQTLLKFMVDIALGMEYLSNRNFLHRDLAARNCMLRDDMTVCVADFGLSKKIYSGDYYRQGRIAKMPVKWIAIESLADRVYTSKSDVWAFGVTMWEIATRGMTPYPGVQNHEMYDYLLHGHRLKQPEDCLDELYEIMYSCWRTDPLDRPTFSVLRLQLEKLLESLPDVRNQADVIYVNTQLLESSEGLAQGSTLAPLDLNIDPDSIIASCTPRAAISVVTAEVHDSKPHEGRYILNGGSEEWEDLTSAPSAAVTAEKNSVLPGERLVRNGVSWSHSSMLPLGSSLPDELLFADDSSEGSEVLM
Assay: TBD: TBD

Row | Structure (SMILES) | IC50
1 | CN1CCN(Cc2ccc(-c3ccc(CO[C@H]4CCC[C@@H]4NC(=O)c4cc(-c5ccc(Cl)c(F)c5)cnc4N)cc3)cc2)CC1 | < 0.01 µM
2 | C[C@@H](CNC(=O)c1cc(-c2cnn(C)c2)cnc1N)OCc1ccc(Cl)c(Cl)c1 | > 1 µM
